According to ChEMBL document CHEMBL1140452, “5'-halogenated analogs of oxymorphindole” (Bioorg Med Chem Lett, 2007):
The source made the active and inactive calls. The calls are words filed in the database; no cut-off is given here.

Columns and labels:
Mus musculus [1] = test: Antinociceptive effect in mouse at 30 mg/kg by hot plate assay; type: functional, organism-based; parameters: dose 30 mg/kg
[2] = biological target: T1, Delta-type opioid receptor (Homo sapiens, UniProt P41143); test: Displacement of [3H]p-Cl-DPDPE from delta opioid receptor
Mu-type opioid receptor [3] = biological target: T2, Mu-type opioid receptor (Homo sapiens, UniProt P35372); test: Displacement of [3H]DAMGO from mu opioid receptor
Mus musculus [4] = test: Antinociceptive effect in mouse at 30 mg/kg by […]; type: functional, organism-based; parameters: dose 30 mg/kg
Mus musculus [5] = test: Antinociceptive effect in mouse at 30 mg/kg by antiwrithing assay; type: functional, organism-based; parameters: dose 30 mg/kg
Homo sapiens = species: Homo sapiens; test: Selectivity for delta opioid receptor over mu opioid receptor
Mus musculus [6] = test: Antinociceptive effect in mouse at 30 mg/kg by tail flick assay; type: functional, organism-based; parameters: dose 30 mg/kg
[7] = biological target: Kappa-type opioid receptor (Homo sapiens, UniProt P41145); test: Displacement of [3H]U-69593 from cloned kappa opioid receptor
[8] = biological target: T1, Delta-type opioid receptor; test: Activity at delta opioid receptor assessed as stimulation of [35S]GTP-gamma-S binding
Mu-type opioid receptor [9] = biological target: T2, Mu-type opioid receptor; test: Activity at mu opioid receptor assessed as stimulation of [35S]GTP-gamma-S binding; type: functional

Chain of Kappa-type opioid receptor (P41145 whole entry): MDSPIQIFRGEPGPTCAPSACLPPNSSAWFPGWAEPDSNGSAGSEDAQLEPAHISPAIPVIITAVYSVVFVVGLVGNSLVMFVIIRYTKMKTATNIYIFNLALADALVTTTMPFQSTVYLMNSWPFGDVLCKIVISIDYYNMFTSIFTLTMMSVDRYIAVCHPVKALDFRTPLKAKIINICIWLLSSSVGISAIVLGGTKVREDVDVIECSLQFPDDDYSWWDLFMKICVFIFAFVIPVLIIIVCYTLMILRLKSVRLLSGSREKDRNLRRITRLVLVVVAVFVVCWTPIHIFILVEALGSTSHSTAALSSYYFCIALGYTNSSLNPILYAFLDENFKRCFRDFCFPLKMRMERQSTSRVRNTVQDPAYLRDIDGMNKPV
T2 sequence (P35372 whole entry): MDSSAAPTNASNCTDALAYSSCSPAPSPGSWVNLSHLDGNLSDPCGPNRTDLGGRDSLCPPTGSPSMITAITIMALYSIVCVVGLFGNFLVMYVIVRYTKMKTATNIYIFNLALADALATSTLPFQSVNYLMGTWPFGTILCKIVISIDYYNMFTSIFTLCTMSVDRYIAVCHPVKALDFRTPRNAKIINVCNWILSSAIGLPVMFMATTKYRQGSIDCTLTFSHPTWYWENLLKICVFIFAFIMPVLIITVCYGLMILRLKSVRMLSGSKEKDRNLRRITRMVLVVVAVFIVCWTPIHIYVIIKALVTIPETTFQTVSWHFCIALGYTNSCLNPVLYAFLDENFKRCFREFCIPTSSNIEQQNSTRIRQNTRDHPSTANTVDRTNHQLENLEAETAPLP
T1 sequence (P41143 whole entry): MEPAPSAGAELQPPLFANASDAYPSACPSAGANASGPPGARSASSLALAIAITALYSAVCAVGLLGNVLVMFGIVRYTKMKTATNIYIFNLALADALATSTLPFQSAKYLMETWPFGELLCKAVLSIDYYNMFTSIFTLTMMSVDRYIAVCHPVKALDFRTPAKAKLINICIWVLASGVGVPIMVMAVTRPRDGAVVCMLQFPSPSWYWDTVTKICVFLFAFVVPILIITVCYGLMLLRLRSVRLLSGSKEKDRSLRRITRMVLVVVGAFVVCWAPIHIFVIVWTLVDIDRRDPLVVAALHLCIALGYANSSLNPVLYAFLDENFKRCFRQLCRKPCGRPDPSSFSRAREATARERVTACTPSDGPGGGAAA

SMILES: CN1CC[C@]23c4c5ccc(O)c4O[C@H]2c2[nH]c4ccccc4c2C[C@@]3(O)[C@H]1C5 [OXYMORPHINDOLE]
- Activity (Mus musculus [1]): inactive
- Ki [2]: 0.9 nM
- Ki (Mu-type opioid receptor [3]): 105 nM
- Activity (Mus musculus [4]): inactive
- Activity (Mus musculus [5]): inactive
- Ratio Ki (Homo sapiens): 115
- Activity (Mus musculus [6]): inactive

SMILES: CN1CC[C@]23c4c5ccc(O)c4O[C@H]2c2[nH]c4ccc(Br)cc4c2C[C@@]3(O)[C@H]1C5
- Activity (Mus musculus [1]): inactive
- Ki [2]: 8.6 nM
- Ki [7]: 250 nM
- Ki (Mu-type opioid receptor [3]): 71 nM
- Activity (Mus musculus [4]): inactive
- Activity (Mus musculus [5]): inactive
- Ratio Ki (Homo sapiens): 8
- Activity (Mus musculus [6]): inactive

SMILES: CN1CC[C@]23c4c5ccc(O)c4O[C@H]2c2[nH]c4ccc(I)cc4c2C[C@@]3(O)[C@H]1C5
- Activity (Mus musculus [1]): inactive
- Ki [2]: 3.8 nM
- Ki [7]: 160 nM
- Ki (Mu-type opioid receptor [3]): 66 nM
- Activity (Mus musculus [4]): inactive
- Activity (Mus musculus [5]): inactive
- Ratio Ki (Homo sapiens): 17
- Activity (Mus musculus [6]): inactive

SMILES: CN1CC[C@]23c4c5ccc(O)c4O[C@H]2c2[nH]c4ccc(Cl)cc4c2C[C@@]3(O)[C@H]1C5
- Activity (Mus musculus [1]): inactive
- Ki [2]: 5.1 nM
- Ki [7]: 360 nM
- Ki (Mu-type opioid receptor [3]): 47 nM
- Activity (Mus musculus [4]): inactive
- Activity (Mus musculus [5]): inactive
- Ratio Ki (Homo sapiens): 9
- Activity (Mus musculus [6]): inactive

SMILES: CN1CC[C@]23c4c5ccc(O)c4O[C@H]2c2[nH]c4ccc(F)cc4c2C[C@@]3(O)[C@H]1C5
- Activity (Mus musculus [1]): inactive
- Ki [2]: 2.3 nM
- Ki [7]: 310 nM
- Ki (Mu-type opioid receptor [3]): 21 nM
- Activity (Mus musculus [4]): inactive
- EC50 [8]: 16 nM
- Activity (Mus musculus [5]): inactive
- Ratio Ki (Homo sapiens): 9
- Activity (Mu-type opioid receptor [9]): 34%
- EC50 (Mu-type opioid receptor [9]): 1080 nM
- Activity (Mus musculus [6]): inactive
